According to publication PMC8846325, “A Photoactivable Natural Product with Broad Antiviral Activity against Enveloped Viruses, Including Highly Pathogenic Coronaviruses” (Antimicrobial Agents and Chemotherapy, 2022):

Assays:
HCoV-229E [1] = experiment: HCoV-229E-Luc infection inhibition luciferase assay; assay type: cell-based; details: for IC50: Human coronavirus 229E
[2] = MTS cell toxicity assay, Huh-7 cells; assay type: cell-based; details: human, Huh-7 cells, 24 h
Method: (§1) A total of 6 × 10^4 Huh-7, Vero-E6, and Vero-81 cells were seeded in 96-well plates and incubated for 16 h at 37°C in a 5% CO2 incubator. The cells were then treated with increasing concentrations of the compound of interest. One hour after inoculation, cells were taken out of the incubator to be exposed to the white light of a biosafety cabinet (BSC) for 10 min, after which cells were further incubated in the dark at 37°C and 5% CO2 for 23 h. The BSC’s light source lamp consists of one fluorescent tube of 36 W, 3,350 lumen, white light. An MTS [3-(4,5-dimethylthiazol-2-yl)-5-(3-carboxymethoxyphenyl)-2-(4-sulfophenyl)-2H-tetrazolium]-based viability assay (Cell Titer 96 aqueous nonradioactive cell proliferation assay; Promega) was performed as recommended by the manufacturer. The absorbance of formazan at 490 nm was detected using a plate reader (ELX 808 Bio-Tek Instruments Inc.). Each measure was performed in triplicate, and each experiment was repeated at least 3 times.
(§2) 6×104 Huh-7, Vero-E6 and Vero-81 cells were seeded in 96-well plates and incubated for 16 h at 37 °C 5% CO2 incubator. The cells were then treated with increasing concentrations of the compound of interest. One hour after inoculation, cells were either left in the incubator (dark condition) or taken out to be exposed to the white light of the biosafety cabinet (BSC) for 10 min (light condition), after which cells were further incubated in the dark at 37 °C 5% CO2 for 23 h. BSC’s light source lamp consists of one fluorescent tube of 36W, 3350 lumen white light. An MTS [3-(4,5-dimethylthiazol-2-yl)-5-(3-carboxymethoxyphenyl)-2-(4-sulfophenyl)- 2H-tetrazolium]-based viability assay (Cell Titer 96 Aqueous non-radioactive cell proliferation assay, Promega) was performed as recommended by the manufacturer. The absorbance of formazan at 490 nm was detected using a plate reader (ELX 808 Bio-Tek […]
(§3) Instruments Inc). […]

Huh-7 cells = experiment: MTS cell toxicity assay, Huh-7 cells; assay type: cell-based; details: Huh-7 cells, 24 h in incubator without light exposure
Method: as §1, §2, §3

[3] = MTS cell toxicity assay, Vero-E6 cells; assay type: cell-based; details: African green monkey, 24 h, 10 min light exposure after 1 h, read-out: 50% cytotoxic concentration (CC50)
Method: as §1
(§4) 6×104 Huh-7, Vero-E6 and Vero-81 cells were seeded in 96-well plates and incubated for 16 h at 37 °C 5% CO2 incubator. The cells were then treated with increasing concentrations of the compound of interest. […] The absorbance of formazan at 490 nm was detected using a plate reader (ELX 808 Bio-Tek […]

Vero-E6 cells = experiment: MTS cell toxicity assay, Vero-E6 cells; assay type: cell-based; details: 24 h in incubator without light exposure
Method: as §1, §4

[4] = MTS cell toxicity assay, Vero-81 cells; assay type: cell-based; details: African green monkey, 24 h, 10 min light exposure after 1 h, read-out: 50% cytotoxic concentration (CC50)
Method: as §1, §4

Vero-81 cells = experiment: MTS cell toxicity assay, Vero-81 cells; assay type: cell-based; details: 24 h in incubator without light exposure
Method: as §1, §4

HCoV-229E [5] = experiment: HCoV-229E infectious titers (TCID50); assay type: cell-based
SARS-CoV-2 [6] = experiment: microbe, parasite or virus in culture; assay type: cell-based
MERS-CoV [7] = experiment: microbe, parasite or virus in culture; assay type: cell-based
HCoV-229E [8] = experiment: Time-of-addition assay, HCoV-229E-Luc; assay type: cell-based
SARS-CoV-2 [9] = assay type: cell-based
HCoV-229E [10] = experiment: Attachment assay (bound virions by qRT-PCR); assay type: cell-based; details: Huh-7-TMPRSS2 cells, 4°C 1 h, 4.1 and 8.2 μM
HCoV-229E [11] = experiment: Trypsin-induced virus-cell fusion assay; assay type: cell-based; details: Huh-7 cells, NH4Cl, 0.5 and 1 μM
SARS-CoV-2 spike protein = SARS-CoV-2 spike protein (Severe acute respiratory syndrome coronavirus 2, UniProt P0DTC2); assay type: cell-based
HCoV-229E [12] = experiment: White light exposure kinetics; assay type: cell-based
[13] = system: pseudotyped viral particles with envelope proteins of VSV, HCV, SARS-CoV-2, and MERS-CoV; assay type: cell-based
coxsackievirus (CVB4) = assay type: cell-based, Coxsackievirus B4
hepatitis C virus = assay type: cell-based, HCV
yellow fever virus (YFV) = assay type: cell-based; details: 1 and 2.5 μM, light 30 min prior to inoculation
Sindbis virus (SINV) = assay type: cell-based
SARS-CoV-2 [14] = assay type: cell-based; remark: listed apart in the source
MERS-CoV [15] = assay type: cell-based; details: Mucilair cells, 2.5 μM, 72 h postinoculation
[16] = system: Mucilair primary human bronchial epithelial cells; experiment: Mucilair toxicity assays (LDH secretion, transepithelial electrical resistance); details: 0.25 and 2.5 μM, up to 72 h
[17] = Huh-7-TMPRSS2 cells, Pba 2 μM, BSC light

## C=Cc1c(C)c2cc3nc(c4c5[nH]c(cc6nc(cc1[nH]2)C(C)=C6CC)c(C)c5C(=O)[C@@H]4C(=O)OC)[C@@H](CCC(=O)O)[C@@H]3C [Pba, pheophorbide a]
HCoV-229E [1]; Huh-7 cells, 25 μg/ml, 7 h postinoculation
  activity against HCoV-229E-Luc, extracts and fractions: the most active
HCoV-229E [1]; Huh-7 cells, dark, 10 μM
  antiviral activity in the dark: antiviral activity was observed
HCoV-229E [1]; Huh-7 versus Huh-7-TMPRSS2 cells
  antiviral activity in presence or absence of TMPRSS2: No difference in antiviral activity
HCoV-229E [1]; Huh-7
  IC50: 0.54 µM
HCoV-229E [1]; Huh-7, 7 h, read-out: 50% inhibitory concentration (IC50) against HCoV-229E-Luc
  IC50: 0.51 µM
HCoV-229E [1]; virus preincubated 30 min with 2 μM, diluted to 0.2 μM for inoculation, compared with 0.2 μM directly, Huh-7 cells
  antiviral activity after pretreatment of virus versus no pretreatment: much stronger
[2]; 10 min light exposure after 1 h, read-out: 50% cytotoxic concentration (CC50)
  CC50 at 24 h: 4.4 ± 1.2 µM
[2]; light exposure, read-out: CC50 (μM) 24 h
  CC50 at 24 h: 6.08 µM
Huh-7 cells
  concentrations at which no toxicity was exhibited: up to 120 μM
[3]
  CC50 at 24 h: 5.8 ± 1.9 µM
Vero-E6 cells
  concentrations at which no toxicity was exhibited: up to 120 μM
[4]
  CC50 at 24 h: 5.5 ± 2 µM
Vero-81 cells
  concentrations at which no toxicity was exhibited: up to 120 μM
HCoV-229E [5]; CC50 Huh-7 / IC50 infectious titers
  selectivity index (SI), HCoV-229E: 44
HCoV-229E [5]; Human coronavirus 229E, Huh-7, 10 min, read-out: IC50, HCoV-229E infectious titers
  IC50: 0.1 µM
SARS-CoV-2 [6]
  selectivity index, SARS-CoV-2: 32
SARS-CoV-2 [6]; Severe acute respiratory syndrome coronavirus 2, Vero C1008, read-out: IC50, SARS-CoV-2 infectious titers
  IC50: 0.18 µM
MERS-CoV [7]
  selectivity index, MERS-CoV: 24
MERS-CoV [7]; Middle East respiratory syndrome-related coronavirus, Huh-7, read-out: IC50, MERS-CoV infectious titers
  IC50: 0.18 µM
HCoV-229E [8]
  infectivity, compound added more than 2 h after inoculation: normal levels of infectivity
HCoV-229E [8]; [17]
  inhibition of infection, compound added before inoculation (pretreatment of the cells): no inhibition of infection
  inhibition of infection, compound present during inoculation: strong inhibition of infection
SARS-CoV-2 [9]
  infectivity, compound added more than 2 h after inoculation: normal levels of infectivity
  inhibition of infection, compound added before inoculation (pretreatment of the cells): no inhibition of infection
  inhibition of infection, compound present during inoculation: strong inhibition of infection
HCoV-229E [10]
  virus attachment (bound HCoV-229E RNA levels): only a slight and nonsignificant decrease in RNA levels
HCoV-229E [11]
  infection under trypsin-mediated fusion conditions: strongly inhibited infection levels
SARS-CoV-2 spike protein
  spike-induced cell-cell fusion (syncytium formation): cannot prevent cell-cell fusion
HCoV-229E [12]; 0.02 μM, 80 min light exposure
  antiviral effect at inactive concentration with long light exposure: no antiviral effect
HCoV-229E [12]; 0.02, 0.2, 2 μM, light 5 to 80 min
  inhibitory effect with longer light exposure times: increased inhibitory effect
[13]
  pseudoparticle infection: inhibited pseudoparticle infection regardless of the nature of the viral envelope protein but only under light conditions
Coxsackievirus (CVB4)
  antiviral activity on CVB4 (nonenveloped): not active
Hepatitis C virus
  antiviral activity on HCV (enveloped): clear antiviral effect
Yellow fever virus (YFV)
  antiviral activity on YFV (enveloped): clear antiviral effect
Sindbis virus (SINV)
  antiviral activity on SINV (enveloped): clear antiviral effect
SARS-CoV-2 [14]
  decrease of viral titers, SARS-CoV-2: more than 1 log10
  viral RNA levels of SARS-CoV-2: significantly decreased
MERS-CoV [15]
  decrease of viral titers, MERS-CoV: more than 1 log10
  viral RNA levels of MERS-CoV: significantly decreased
[16]
  toxicity (LDH secretion and transepithelial electrical resistance): No toxicity was observed
